In patent US11939345B2, “Physiologically stable fluorophore and performing fluorescence probing” (Government of the United States of America, as represented …, priority 2019, dated 2024):

Experiments:
[1] = pH stability of fluorescence intensity; type: physicochemical; details: Example 2; FIG. 22B
Method: With regard to assessment of photoluminescence properties of labeled CNF, photoluminescence excitation (PLE) spectroscopy maps and line scans were obtained with spectrofluorometer and corrected for the instrument's source spectral distribution and detector spectral response. Excitation wavelengths were scanned in 5 nm increments using a 450 W xenon lamp through a 2 nm slit. Emitted light was collected at 90° and measured using a liquid N2-cooled InGaAs detector over 2 nm increments through a 2 nm slit. The fluorescence emission spectra of mDTEB-CNF and mDTEB-seCNF were created using an excitation wavelength (λEx) of 514 nm with emission wavelengths from 530 nm to 650 nm. […] The pH stability of mDTEB-CNF and mDTEB-seCNF were evaluated by measuring fluorescence intensity using a Nanolog-3 spectrofluorometer. Buffered solutions containing 0.5 mg/mL labeled CNF in the range of pH 2 to 10 were equilibrated to 37° C., and the fluorescence intensity was measured at λEm 540 nm. […] The photoluminescence spectra of autoclaved washed fibers, the collected supernatants, and the controls were recorded using the spectrofluorometer as described above. The concentration-dependence of the labeled CNF fluorescence was assessed by measuring the fluorescence intensity of labeled CNF diluted to concentrations between 2 μg/mL and 2 mg/mL using PBS buffer or deionized water. […]

[2] = Photoluminescence excitation/emission and absorption spectra; type: physicochemical
Method: With regard to assessment of photoluminescence properties of labeled CNF, photoluminescence excitation (PLE) spectroscopy maps and line scans were obtained with spectrofluorometer and corrected for the instrument's source spectral distribution and detector spectral response. Excitation wavelengths were scanned in 5 nm increments using a 450 W xenon lamp through a 2 nm slit. Emitted light was collected at 90° and measured using a liquid N2-cooled InGaAs detector over 2 nm increments through a 2 nm slit. The fluorescence emission spectra of mDTEB-CNF and mDTEB-seCNF were created using an excitation wavelength (λEx) of 514 nm with emission wavelengths from 530 nm to 650 nm. An excitation plot was created with an emission wavelength (λEm) of 540 nm with excitation wavelengths from 400 nm to 530 nm. The UV-Vis absorption spectra were collected with a UV-Vis-NIR spectrophotometer. The pH stability of mDTEB-CNF and mDTEB-seCNF were evaluated by measuring fluorescence intensity using a Nanolog-3 spectrofluorometer. Buffered solutions containing 0.5 mg/mL labeled CNF in the range of pH 2 to 10 were equilibrated to 37° C., and the fluorescence intensity was measured at λEm 540 nm. […] The photoluminescence spectra of autoclaved washed fibers, the collected supernatants, and the controls were recorded using the spectrofluorometer as described above. The concentration-dependence of the labeled CNF fluorescence was assessed by measuring the fluorescence intensity of labeled CNF diluted to concentrations between 2 μg/mL and 2 mg/mL using PBS buffer or deionized water. Fluorescence intensity was recorded on a multimode microplate reader equipped with monochromator optics at λEx 514 nm and λEm 540 nm. […] Each suspension was measured in triplicate using 200 μL samples. […] For fluorescence images, dilute labeled CNF suspensions were deposited onto an ultraviolet ozone (UVO)-treated glass slides and dried at room temperature. […]
Photoluminescence properties (excitation and emission spectra) of the mDTEB dye and mDTEB-seCNF were recorded using fluorescence spectroscopy. […]

- emission intensity as a function of pH [1]: stable to a wide range of pH values
- Stokes shift [2]: 36 nm
- absorbance peak ([2]; FIG. 22A, in water): 514 nm
- maximum emission intensity wavelength / emission peak ([2]; fluorescence spectroscopy): 540 nm
SMILES: CCC1=C(C)C2=C(c3ccc(Oc4nc(Cl)nc(Cl)n4)cc3)c3c(C)c(CC)c(C)n3[B-](F)(F)[N+]2=C1C [mDTEB, 10-(4-((4,6-dichloro-1,3,5-triazin-2-yl)oxy)phenyl)-2,8-diethyl-5,5-difluoro-1,3,7,9-tetramethyl-5H-414,514-dipyrrolo[1,2-c:2′,1′-f] [1,3,2]diazaborinine]
